Non-standard residues stand in square brackets, D forms with d. Residues, ends and D or L forms follow the SMILES beside them.
Tests used:
[1] = test system: human plasma HDL; assay: human plasma HDL remodeling (NDGGE, immunoblot for human apoA-I); format: biochemical; conditions: human plasma in vitro; Western blot for apoA-I; FIGS. 1 and 2a
From the text: As an initial phase of investigation, we evaluated in vitro the effectiveness of our cyclic D,L-α-peptides to remodel mature human plasma HDLs into lipid-poor HDL (FIG. 1 and FIG. 2a). Lipid-poor HDL particles are key acceptors of cholesterol in reverse cholesterol transport and are thus crucial for combating atherosclerosis. In fact, with respect to the cholesterol efflux capacity of human sera, the levels of lipid-poor HDL correlate much better than the levels of HDL-cholesterol or apoA-I. Briefly, our assay involved incubating human plasma with a peptide, after which the plasma sample was subjected to non-denaturing gradient gel electrophoresis (NDGGE) to separate the HDL subspecies and then immunoblotted for human apoA-I. The ranked activities of the cyclic D,L-α-peptides in promoting formation of lipid-poor HDL are shown in FIG. 1. It should be noted that there are inherent variabilities associated with electrophoretic transfer, staining, and densitometric quantitation, so the peptide ranking should be viewed as an approximate guide to relative plasma HDL remodeling efficacy. Nevertheless, the rankings were similar overall whether the panel was assayed by using peptide stock solutions prepared in 10% sucrose/H2O (FIGS. 1 and 2a) or peptide stock solutions prepared in 1:1 DMSO/H2O. From these preliminary structure-activity relationship (SAR) studies, we identified a pronounced sequence dependence for efficient plasma HDL remodeling (vide infra).
Human plasma remodeling: All procedures involving human samples were approved by TSRI Institutional Review Board. Procedures were modified from those reported in Troutt et al., J. Lipid Res. 49, 581-587, 2008. Blood samples from normal healthy human donors were obtained from TSRI Normal Blood Donor Program. EDTA-anticoagulated whole blood was centrifuged at 1500×g for 15 min within 1 h of being drawn from the donor. The plasma layer was aliquoted and used immediately or frozen at −80° C. for future use. Peptide stock solutions were prepared at ˜15 mM peptide in 50% DMSO for initial screenings, or at ˜2 mM peptide in 10% sucrose for remodeling assays at lower concentrations (FIG. 1) and cholesterol efflux assays (FIG. 2). Plasma samples (30 μL) were treated with peptide stocks, and the samples were incubated at 37° C. for 0.5-1 h, and then quenched by adding 270 μL of 50% sucrose (1:9 dilution). Samples were mixed with 6× native loading buffer (125 mM tris, pH 6.8, 0.02% bromophenol, 20% glycerol), of which 6 μL was loaded onto a 4-20% polyacrylamide gel. The molecular weight ladder used was High Molecular Weight Calibration Kit (Amersham Biosciences, #17-0445-01). […] The films were scanned and quantified by densitometry using the program LabWorks (v. 4.0.0.8). […]

[2] = plasma concentration during oral administration in drinking water; format: in vivo; conditions: LDLr-null (LDLr−/−), mouse, orally in the drinking water at 25 mg/kg/day, limit of detection 1 μM
From the text: We continued oral administration of the peptide to the animals for an additional eight weeks (ten weeks total for the study) to determine how the peptide would impact the development of atherosclerotic lesions (see FIG. 6 for treatment schedule). At the completion of the 10-week study, the total plasma cholesterol level in the peptide-treated animals was 30% lower than in control animals (FIG. 2c). Moreover, an analysis of the whole aorta lesion area and the aortic sinus lesion volume indicated reductions in atherosclerotic lesions of 26% and 50%, respectively (FIGS. 2c, d). […] When administered orally in the drinking water at 25 mg/kg/day, the plasma concentration of compound 1 was below the 1 μM limit of detection (data not shown).
LC-MS SIM quantitation of peptide concentration: Cyclic peptide concentrations were quantified by using reverse-phase HPLC coupled with mass spectrometry. The electrospray ionization mass spectrometry measurements were carried out in the positive ionization mode using a single quadrupole mass spectrometer (Hewlett Packard HP 1100 MSD series). […] For quantitative calibration, standard curves were established using mouse EDTA-anticoagulated plasma spiked with various concentrations of the peptide. […]

[3] = test system: HDL in human plasma; assay: pre-beta HDL ELISA assay: remodeling HDL in human plasma in vitro; format: biochemical; conditions: pre-beta HDL ELISA
Protocol: First, various cyclic peptides, including the majority of compounds shown in FIG. 2, were assessed for activities for remodeling HDL in human plasma in vitro. Unlike western blot which was used to generate data shown in FIG. 2, here a pre-beta HDL ELISA assay was used to measure pre-beta HDL levels. Results from the assay are shown in Table 1, which lists the peptides in the order of their activities in remodeling HDL.

CC(C)C[C@@H]1NC(=O)[C@@H](Cc2c[nH]c3ccccc23)NC(=O)[C@H](CCCNC(=N)N)NC(=O)[C@@H](CCC(=O)O)NC(=O)[C@H](CCC(N)=O)NC(=O)[C@@H](CCC(=O)O)NC(=O)[C@H](CCCNC(=N)N)NC(=O)[C@@H](Cc2c[nH]c3ccccc23)NC1=O [SEQ ID NO:1, c[wLwReQeR]] (cyclo([dW]L[dW]R[dE]Q[dE]R))
plasma HDL remodeling to lipid-poor HDL (in words) [1]: considerably more active than any of four analogs | level at time molar [2]: < 1000 nM | Pre-beta HDL generated (normalized level) [3]: 0.88

Reference: patent publication US10092620B2, “Uses of cyclic peptides for treating and preventing atherosclerosis” (THE SCRIPPS RESEARCH INSTITUTE, priority 2013, dated 2018)
